Assay results reported in paper PMC8464850, “Sulfonium Ligands of the α7 nAChR” (Molecules, 2021).

Biological target: T1, α4(2)β2(2)β2L15’M receptors (Homo sapiens, UniProt P17787+P43681, L280M)
T1 construct: expressed in transfected cells; host or cells: Xenopus laevis oocytes (injected RNA)
Assay: Silent agonism of the TQS-sensitive α4β2L15’M mutant receptor
Type: cell-based
Description: We conducted a screen of the other sulfonium compounds on the α4β2L15’M receptors and identified at least two compounds that gave potentiated responses above our limit of detection indicated by the dotted line in Figure 8B.
Figure 8 Silent agonism of an α4β2 mutant receptor that is sensitive to the α7 PAM TQS. (A) The averaged raw data of responses of eight oocytes expressing the β2-6-α4 concatamer and the β2L15’M mutant to 100 µM of the sulfonium agonist S1, applied alone or co-applied with 30 µM racemic TQS. […] (B) Evaluation of the effects of the sulfonium compounds, applied alone at 100 µM or co-applied with 30 µM TQS to α4(2)β2(2)β2L15’M receptors. […]
Solutions were applied from 96-well plates via disposable tips. […] The responses were calculated as both peak current amplitudes and net charge, as previously described. Data were collected at 50 Hz, filtered at 20 Hz for α7 receptors or filtered at 5 Hz for heteromeric nAChR, and analyzed by Clampfit (Molecular Devices, San Jose, CA, USA) and Excel (Microsoft, Redmond, WA, USA). Data were expressed as means ± SEM from at least four oocytes for each experiment and plotted with Kaleidagraph 4.5.2 (Abelbeck Software, Reading, PA, USA). Multi-cell averages were calculated for comparisons of complex responses. […]

T1 sequence (P17787 26-502, stated change not applied): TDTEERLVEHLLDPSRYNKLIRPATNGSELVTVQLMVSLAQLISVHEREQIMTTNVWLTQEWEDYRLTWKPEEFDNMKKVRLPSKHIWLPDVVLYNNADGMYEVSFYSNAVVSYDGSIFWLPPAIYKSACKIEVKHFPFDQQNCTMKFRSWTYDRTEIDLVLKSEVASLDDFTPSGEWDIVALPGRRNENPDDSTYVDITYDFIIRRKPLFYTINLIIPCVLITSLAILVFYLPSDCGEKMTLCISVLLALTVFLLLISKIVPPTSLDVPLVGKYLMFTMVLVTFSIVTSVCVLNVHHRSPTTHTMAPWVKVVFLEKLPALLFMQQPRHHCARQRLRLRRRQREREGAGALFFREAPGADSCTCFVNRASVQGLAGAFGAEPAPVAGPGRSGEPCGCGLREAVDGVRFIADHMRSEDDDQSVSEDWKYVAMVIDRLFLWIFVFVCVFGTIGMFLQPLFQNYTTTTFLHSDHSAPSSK
T1 sequence (P43681 27-627): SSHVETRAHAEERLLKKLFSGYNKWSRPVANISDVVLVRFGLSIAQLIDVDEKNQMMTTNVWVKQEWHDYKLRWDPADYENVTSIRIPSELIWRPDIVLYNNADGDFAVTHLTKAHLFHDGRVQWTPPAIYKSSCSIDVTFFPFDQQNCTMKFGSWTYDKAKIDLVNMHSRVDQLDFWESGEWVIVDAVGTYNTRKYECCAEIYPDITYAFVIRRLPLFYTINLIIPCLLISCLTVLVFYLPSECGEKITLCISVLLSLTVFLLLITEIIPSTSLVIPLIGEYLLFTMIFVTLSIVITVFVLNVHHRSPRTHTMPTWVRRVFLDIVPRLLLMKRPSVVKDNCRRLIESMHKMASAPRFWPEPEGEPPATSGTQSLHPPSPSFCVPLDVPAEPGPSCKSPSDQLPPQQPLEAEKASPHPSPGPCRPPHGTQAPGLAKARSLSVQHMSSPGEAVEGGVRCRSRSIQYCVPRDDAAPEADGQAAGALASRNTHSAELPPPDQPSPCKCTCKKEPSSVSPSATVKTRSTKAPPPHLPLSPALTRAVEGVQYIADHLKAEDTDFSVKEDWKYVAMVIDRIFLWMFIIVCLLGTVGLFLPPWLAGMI
T1 sequence (P17787 26-502 L280M): as the sequence (P17787 26-502, stated change not applied) above, with L255M counted along it

## C[S+](C)C.[I-] [Compound S1, trimethylsulfonium iodide]
100 µM applied alone
  activation of α4β2L15’M mutant receptors: activated the α4β2L15’M mutant receptors
100 µM compound with 30 µM TQS, limit of detection 20 nA
  response on co-application with TQS: potentiated by TQS
